As a reminder, the EC50 is the concentration giving half of the maximal effect. Low readings indicate greater potency, high ones weaker potency.

This passage reports EC50 results from patent US20220251084A1, “PROGRANULIN MODULATORS AND METHODS OF USING THE SAME” (ARKUDA THERAPEUTICS, priority 2019, published 2022).

SMILES strings stand for the structures. Some results are limits rather than exact numbers.

In one assay the test system is progranulin (PGRN) secretion, BV-2 cells. In words: PGRN assay: progranulin induction cellular assay (ELISA of secreted mouse PGRN). In kind it is cell-based.
Details: not given
As for the experimental part:
Cellular Assays: To measure the efficacy of compounds, a progranulin induction cellular assay in mouse primary microglia (pMG), primary cortical neurons, and BV-2 cell lines is used. BV-2 cells are split the day before plating into a 96 well plate format at approximately 80%. Cells should be plated the day before and allowed for 1 hour attachment period and for 16 hour incubation. […] Standard ELISA kits to measure PGRN are available from vendors such as Adipogen, R&D, and Biovendor.
In general terms: In an ELISA, binding on a coated surface is turned into a signal by an enzyme label.
`O=C(O[C@@H]1CN2CCC1CC2)N1CCn2nnnc2C1c1ccc(F)cc1` (stereo partly drawn) [Compound 2124] returned a 50% effective concentration (EC50) of 5340 nM.

The assay is the same for the next values; noted with them: Mus musculus, BV-2.
With `COC(=O)c1ccc2c(c1)[C@H](c1ccc(F)cc1)N(C(=O)O[C@@H]1CN3CCC1CC3)CC2` [Compound 2029], the 50% effective concentration (EC50) is greater than 10000 nM.

The same assay, now with this note: Mus musculus, BV-2, PGRN assay, Table C; secreted mouse PGRN in cell culture medium, ELISA.
As to `CN1CCN(C(=O)CC(=O)N2CCc3ccccc3[C@@H]2c2ccc(F)cc2)CC1` [Compound 2189, (S)-1-(1-(4-fluorophenyl)-3,4-dihydroisoquinolin-2(1H)-yl)-3-(4-methylpiperazin-1-yl) propane-1,3-dione], the half-maximal effective concentration (EC50) is 3320 nM. On the same count and under the same terms, the figure for `CNC(=O)c1ccc2c(c1)[C@H](c1ccc(F)cc1)N(C(=O)OCC13CCN(CC1)CC3)CC2` [Compound 2059] is greater than 10000 nM; for `O=C(O[C@H]1[C@@H]2CC[C@H]1CNC2)N1CCc2ccccc2[C@@H]1c1ccc(F)cc1` (single isomer, unassigned) [Compound 2102] it is 278 nM.

Regarding `O=C(OCC12CCN(CC1)CC2)N1CCc2ccccc2[C@H]1c1ccc(F)c(F)c1` [Compound 2111], a half-maximal response (EC50) required 635 nM. Still for that read-out and setting: the figure for `CN1CCC(COC(=O)N2CCc3ccccc3[C@@H]2c2ccc(F)c(F)c2)CC1` [Compound 2138, (1-methylpiperidin-4-yl)methyl-1-(3,4-difluorophenyl)-3,4-dihydroisoquinoline-2(1H)-carboxylate] is 1210 nM; for `COC(=O)c1ccc2c(c1)CCN(C(=O)NCC13CCN(CC1)CC3)[C@@H]2c1ccc(F)cc1` [Compound 2069] it is 4130 nM; for `C#CCN1CCC(COC(=O)N2CCc3ccccc3[C@@H]2c2ccc(F)cc2)CC1` [Compound 2194, (1-(prop-2-yn-1-yl)piperidin-4-yl)methyl (S)-1-(4-fluorophenyl)-3,4-dihydroisoquinoline-2(1H)-carboxylate] it is 3200 nM.

Take `O=C([C@H](O)CC12CCN(CC1)CC2)N1CCc2ccccc2[C@@H]1c1ccc(F)cc1` (single isomer, unassigned) [Compound 2154]: the midpoint of the response, the EC50, lay at 353 nM.

The same assay, now with this note: Mus musculus, BV-2, PGRN assay, Table D; secreted mouse PGRN in cell culture medium, ELISA.
`CC1(C)CNC[C@@H]1OC(=O)N1CCc2ccccc2[C@@H]1c1ccc(F)cc1` [Compound 2291] displayed an EC50 of 591 nM. Turning to `CN(C)C[C@H]1CCN(C(=O)N2CCc3ccccc3[C@@H]2c2ccc(F)cc2)C1` [Compound 2314], the EC50 was found to be 1660 nM. In turn, `CC1(C)CNC[C@H]1NC(=O)N1CCc2ccccc2[C@@H]1c1ccc(F)cc1` [Compound 2273] returned a 50% effective concentration (EC50) of 319 nM.

As for `O=C(OC[C@@H]1CCNC1)N1CCc2ccccc2[C@@H]1c1ccc(F)cc1` [Compound 2230], a half-maximal effect (EC50) was put at 1070 nM. The same measure, in the same setting: the figure for `CN1[C@@H]2CC[C@H]1[C@@H](NC(=O)N1CCc3ccccc3[C@@H]1c1ccc(F)cc1)C2` [Compound 2224] is 480 nM.

As for `CN1C[C@H](NC(=O)N2CCc3ccccc3[C@H]2c2ccc(F)cc2)C2(CC2)C1` [Compound 2316], the EC50 was determined as 453 nM.

For the molecule `O=C(N1CCNCC(F)(F)C1)N1CCc2ccccc2[C@@H]1c1ccc(F)cc1` [Compound 2262, (S)-(6,6-difluoro-1,4-diazepan-1-yl)(1-(4-fluorophenyl)-3,4-dihydroisoquinolin-2(1H)-yl)methanone], the EC50 is greater than 10000 nM. The same measure, in the same setting: for `CN1C[C@@H](N(C)C(=O)N2CCc3ccccc3[C@@H]2c2ccc(F)cc2)C(F)(F)C1` [Compound 2298, (S)—N—((R)-4,4-difluoro-1-methylpyrrolidin-3-yl)-1-(4-fluorophenyl)-N-methyl-3,4-dihydroisoquinoline-2(1H)-carboxamide] the value was greater than 10000 nM; for `O=C(N[C@@H]1CNCCOC1)N1CCc2ccccc2[C@@H]1c1ccc(F)cc1` (single isomer, unassigned) [Compound 2277], 1060 nM; for `CN1CC[C@H](O)[C@@H](O)[C@@H]1COC(=O)N1CCc2ccccc2[C@@H]1c1ccc(F)cc1` (single isomer, unassigned) [Compound 2304], 2330 nM. The same measure, in the same setting: for `O=C(O[C@@H]1CNCC1(F)F)N1CCc2ccccc2[C@@H]1c1ccc(F)cc1` [Compound 2242] the value was 3950 nM.
